Laboratory results: patent publication US11173146B2, “Selective activators of the intermediate conductance CA2+activated K+ channel KCa3.1 and their methods of use” (The Regents of the University of California, priority 2014, dated 2021)
“Also recorded” adds a separate entry of the source. Like-named read-outs stand apart in the source and are kept apart here.

Columns and labels:
wild-type mice = assay: Telemetry of blood pressure and heart rate in wild-type mice; format: in vivo; details: for mean arterial blood pressure: FIG. 6A
Protocol: Telemetry. […] . […] . […] . […] . Maximal injection volume was ≤600 μl. […] . […] Data were analyzed using the DSI software.
. […] . The blood pressure drop was accompanied by a severe reduction of heart rate (HR) by ˜400 bpm (FIG. 6A left). To avoid fatal hypothermia or circulatory collapse, we handled these severely bradycardic mice for ˜2 h and increased RT to 34° C. As shown in FIG. 6A these maneuvers increased MAP transiently, presumably because of a sympathetic input on total peripheral resistance, but not HR and the low HR persisted over another 10 h before the mice slowly recovered (FIG. 6A left). […] However, this drop was more transient and lasted for ˜3 h.

hNaV1.4 = target: T1, hNaV1.4 (Homo sapiens, UniProt P35499); assay: NaV1.4 current inhibition (HEK-293); format: cell-based; details: HEK293
T1 construct: host or cells: HEK-293

KV11.1 (hERG) = target: T2, KV11.1 (hERG) (Homo sapiens, UniProt Q12809); assay: KV11.1 (hERG) current inhibition (HEK-293); format: cell-based
T2 construct: host or cells: HEK-293
Source text: Cells, Cell lines and Clones. HEK-293 cells stably expressing hKCa2.1, rKCa2.2 and hKCa3.1 were obtained from Khaled Houamed (University of Chicago, Ill.) in 2002 and have been maintained in the Wulff laboratory at the University of California since then. The cloning of hKCa2.3 (19 CAG repeats) and hKCa3.1 has been previously described (Wulff et al., 2000). The hKCa2.3 clone was later stably expressed in COS-7 cells at Aurora Biosciences Corp., San Diego, Calif. […]
Electrophysiology. […] For manual experiments COS-7, HEK-293 or L929 cells were trypsinized, plated onto poly-L-lysine coated coverslips and typically recorded from between 20 min and 4 h after plating. […] Free Ca^2+ concentrations were calculated with MaxChelator assuming a temperature of 25° C., a pH of 7.2 and an ionic strength of 160 mM. To reduce contaminating currents from native chloride channels in COS-7 cells, KCa2.3 currents were recorded with an internal pipette solution containing (in mM): 145 K^+ aspartate, 2 MgCl2, 10 HEPES, 10 EGTA and 7.4 CaCl2 (500 nM free Ca^2+), pH 7.2, 290-310 mOsm. […] KV2.1, Kv1.3, and KV3.1 currents were recorded in normal Ringer solution with a Ca^2+-free KF-based pipette solution as previously described (Schmitz et al., 2005). HERG (KV11.1) currents were recorded with a 2-step pulse from −80 mV first to 20 mV for 1 sec and then to −50 mV for 1 sec. […]

[1] = Pharmacokinetics in mice (UPLC/MS); format: in vivo, mouse; set-up: distribution from blood into tissue / oral availability: dose or concentration left out as unconfirmed; details: for half-life: iv, 10 mg/kg i.v.
Source text: Pharmacokinetics. Twelve week-old male C57BI/6Jmice were purchased from Charles River Laboratories (Wilmington, Mass.) and housed in microisolator cages with rodent chow and autoclaved water ad libitum. All experiments were in accordance with National Institutes of Health guidelines and approved by the University of California, Davis, Institutional Animal Care and Use Committee. […] At various time points after the injection blood was collected into EDTA blood sample collection tubes either from the saphenous vein or by cardiac puncture under deep isoflurane anesthesia. Following the cardiac puncture mice were sacrificed by cutting the heart and then the brain was removed. Individual mice were typically used for 3 times points (2 blood collections from the saphenous vein plus the terminal blood collection). Plasma was separated by centrifugation and plasma and brain samples were stored at −80 °C pending analysis. Brain samples were homogenized in 1 ml of H2O with a Brinkman Kinematica PT 1600E homogenizer and the protein precipitated with 1 ml of acetonitrile. The samples were then centrifuged at 3000 rpm and supernatants concentrated to 1 ml. Plasma and homogenized brain samples were purified using C18 solid phase extraction cartridges (ThermoFisher Scientific, Waltham, Mass., USA) preconditioned with acetonitrile followed by 1 ml of water. The loaded column was washed with 2 ml of water. […] Eluted fractions were dried under nitrogen and reconstituted in acetonitrile. LC/MS analysis was performed with a Waters Acquity UPLC (Waters, New York, N.Y.) equipped with a Acquity UPLC BEH 1.7 μm RP-18 column (Waters, New York, N.Y.) interfaced to a TSQ Quantum Access Max mass spectrometer (MS) (ThermoFisher Scientific, Waltham, Mass., USA). The isocratic mobile phase consisted of 80% acetonitrile and 20% water, both containing 0.1% formic acid with a flow rate of 0.25 ml/min.

T2 sequence (Q12809 whole entry): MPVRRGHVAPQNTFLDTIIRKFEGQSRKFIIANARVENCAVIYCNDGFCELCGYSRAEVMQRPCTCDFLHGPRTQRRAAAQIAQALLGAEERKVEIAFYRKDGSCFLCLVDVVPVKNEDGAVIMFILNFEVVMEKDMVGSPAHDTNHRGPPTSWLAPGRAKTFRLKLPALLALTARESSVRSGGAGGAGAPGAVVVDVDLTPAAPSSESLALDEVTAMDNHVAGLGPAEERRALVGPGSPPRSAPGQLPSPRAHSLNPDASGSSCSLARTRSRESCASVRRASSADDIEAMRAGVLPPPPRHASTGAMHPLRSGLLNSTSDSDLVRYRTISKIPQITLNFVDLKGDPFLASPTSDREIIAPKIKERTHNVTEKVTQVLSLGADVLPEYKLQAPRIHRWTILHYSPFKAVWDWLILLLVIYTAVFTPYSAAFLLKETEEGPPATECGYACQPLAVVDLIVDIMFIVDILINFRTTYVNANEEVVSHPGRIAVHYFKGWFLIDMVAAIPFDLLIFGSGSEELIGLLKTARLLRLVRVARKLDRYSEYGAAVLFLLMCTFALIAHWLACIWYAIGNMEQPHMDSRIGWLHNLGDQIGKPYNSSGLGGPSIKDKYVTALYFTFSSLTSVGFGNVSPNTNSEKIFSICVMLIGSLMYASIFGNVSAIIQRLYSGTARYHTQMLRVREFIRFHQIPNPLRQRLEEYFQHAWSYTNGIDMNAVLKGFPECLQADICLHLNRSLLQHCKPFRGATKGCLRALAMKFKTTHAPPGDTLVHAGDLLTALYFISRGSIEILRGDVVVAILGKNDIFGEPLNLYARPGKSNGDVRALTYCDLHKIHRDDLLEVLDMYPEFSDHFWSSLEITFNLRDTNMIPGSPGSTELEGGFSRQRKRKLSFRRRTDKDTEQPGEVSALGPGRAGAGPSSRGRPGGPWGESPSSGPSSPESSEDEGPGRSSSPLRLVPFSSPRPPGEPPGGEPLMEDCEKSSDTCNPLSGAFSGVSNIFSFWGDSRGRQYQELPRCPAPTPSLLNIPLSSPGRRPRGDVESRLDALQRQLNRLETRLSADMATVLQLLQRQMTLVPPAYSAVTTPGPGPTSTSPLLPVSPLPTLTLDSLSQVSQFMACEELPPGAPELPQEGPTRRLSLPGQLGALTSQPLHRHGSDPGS
T1 sequence (P35499 whole entry): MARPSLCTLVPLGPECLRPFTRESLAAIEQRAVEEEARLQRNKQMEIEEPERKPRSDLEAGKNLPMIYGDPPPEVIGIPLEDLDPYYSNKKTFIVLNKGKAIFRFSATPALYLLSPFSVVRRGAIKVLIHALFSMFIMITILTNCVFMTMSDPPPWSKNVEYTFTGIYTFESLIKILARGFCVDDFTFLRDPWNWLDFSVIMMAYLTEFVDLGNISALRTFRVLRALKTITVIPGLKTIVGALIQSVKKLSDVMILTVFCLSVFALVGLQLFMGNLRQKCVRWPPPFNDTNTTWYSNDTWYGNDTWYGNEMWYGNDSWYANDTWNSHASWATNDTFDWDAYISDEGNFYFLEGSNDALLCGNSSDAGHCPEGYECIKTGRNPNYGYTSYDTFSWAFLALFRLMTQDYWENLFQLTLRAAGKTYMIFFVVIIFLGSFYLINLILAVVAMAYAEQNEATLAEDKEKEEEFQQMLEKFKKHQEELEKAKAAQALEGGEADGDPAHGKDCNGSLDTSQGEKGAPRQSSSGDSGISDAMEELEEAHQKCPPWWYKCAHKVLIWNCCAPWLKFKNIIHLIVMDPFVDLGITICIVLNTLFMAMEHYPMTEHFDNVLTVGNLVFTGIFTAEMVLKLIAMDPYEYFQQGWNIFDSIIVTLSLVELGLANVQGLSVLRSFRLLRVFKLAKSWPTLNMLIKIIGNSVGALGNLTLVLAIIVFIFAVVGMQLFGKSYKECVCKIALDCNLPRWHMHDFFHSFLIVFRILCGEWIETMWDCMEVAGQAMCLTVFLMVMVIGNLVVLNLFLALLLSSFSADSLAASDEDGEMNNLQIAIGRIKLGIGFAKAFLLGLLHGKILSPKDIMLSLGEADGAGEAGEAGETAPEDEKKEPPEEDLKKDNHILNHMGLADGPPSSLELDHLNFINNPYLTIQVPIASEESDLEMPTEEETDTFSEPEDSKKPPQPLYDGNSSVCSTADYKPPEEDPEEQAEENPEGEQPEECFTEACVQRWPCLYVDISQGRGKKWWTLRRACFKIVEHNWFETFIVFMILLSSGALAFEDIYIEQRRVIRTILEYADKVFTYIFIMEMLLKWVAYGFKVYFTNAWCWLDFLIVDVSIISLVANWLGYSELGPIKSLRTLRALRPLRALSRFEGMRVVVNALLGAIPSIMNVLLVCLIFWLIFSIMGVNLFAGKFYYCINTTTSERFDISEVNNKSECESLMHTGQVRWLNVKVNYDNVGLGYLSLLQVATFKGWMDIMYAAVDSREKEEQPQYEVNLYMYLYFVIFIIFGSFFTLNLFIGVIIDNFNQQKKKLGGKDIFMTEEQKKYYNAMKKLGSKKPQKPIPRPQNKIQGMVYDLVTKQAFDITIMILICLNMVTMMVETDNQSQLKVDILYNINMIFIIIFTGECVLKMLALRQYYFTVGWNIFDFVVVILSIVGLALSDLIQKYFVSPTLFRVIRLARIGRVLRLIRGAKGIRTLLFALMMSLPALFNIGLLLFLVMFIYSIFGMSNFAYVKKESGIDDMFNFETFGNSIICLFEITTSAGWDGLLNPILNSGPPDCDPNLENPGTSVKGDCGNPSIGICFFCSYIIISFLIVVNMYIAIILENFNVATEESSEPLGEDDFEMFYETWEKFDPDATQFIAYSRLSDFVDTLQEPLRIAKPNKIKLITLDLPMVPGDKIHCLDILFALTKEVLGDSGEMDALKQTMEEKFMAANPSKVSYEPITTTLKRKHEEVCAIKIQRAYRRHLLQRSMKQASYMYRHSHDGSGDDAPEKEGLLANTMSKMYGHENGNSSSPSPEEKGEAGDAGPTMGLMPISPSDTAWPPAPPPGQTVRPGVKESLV

Cc1cc2sc(N)nc2c2ccccc12 [SKA-111, 5-methylnaphtho[1,2-d]thiazol-2-amine]
MAP (wild-type mice; 30 mg/kg i.p.): Neither SKA-111 nor SKA-121 caused significant changes; also recorded: did not produce significant alterations | change of HR (wild-type mice; 30 mg/kg i.p.): ~−50 bpm | duration of HR decrease after injection (wild-type mice; 30 mg/kg i.p.): ~2 h | heart rate (wild-type mice; 30 mg/kg i.p., 2 h after injection): moderately reduced heart rate | drop in mean arterial blood pressure (MAP) (wild-type mice; 100 mg/kg i.p.): ~25 mmHg | heart rate (wild-type mice; 100 mg/kg i.p.): severely reduced heart rate | reduction of heart rate (HR) (wild-type mice; 100 mg/kg i.p.): ~400 bpm | mean arterial blood pressure (wild-type mice; 100 mg/kg i.p.): reduced mean arterial blood pressure | inhibition at 25 µM (hNaV1.4; at 25 μM): 33.4 ± 10.5% | KV11.1 (hERG) % current inhibition (KV11.1 (hERG); at 25 μM): 10.1 ± 7.7% | distribution from blood into tissue ([1]; […] mg/kg i.v., mice): ~2 min | total brain concentrations probably achieved ([1]; i.p. 100 mg/kg, for hours): 10 to 30 µM | half-life ([1]; male, C57Bl/6J, mouse, plasma, 10 mg/kg, mice, read-out: elimination half-life (converted)): 4.7 ± 0.6 h

Cc1cc2nc(N)oc2c2ccccc12 [SKA-121, 5-Methylnaphtho[2,1-d]oxazol-2-amine]
MAP (wild-type mice; 30 mg/kg i.p.): Neither SKA-111 nor SKA-121 caused significant changes; also recorded: did not produce significant alterations | drop in mean arterial blood pressure (MAP) (wild-type mice; 100 mg/kg i.p.): ~20 mmHg | duration of MAP drop (wild-type mice; 100 mg/kg i.p.): ~3 h | heart rate (wild-type mice; 100 mg/kg i.p.): not and only moderately reduced | mean arterial blood pressure (wild-type mice; 100 mg/kg i.p.): reduced mean arterial blood pressure | inhibition at 50 µM (hNaV1.4; at 50 μM): 25.7 ± 1.3% | KV11.1 (hERG) % current inhibition (KV11.1 (hERG); at 50 μM): 16.7 ± 9.7% | oral availability ([1]; […] mg/kg oral vs i.v., mice): roughly 25% | concentration at 1 h ([1]; male, C57Bl/6J, mouse, plasma, 10 mg/kg, […] mg/kg oral, mice, read-out: plasma level at 1 h after oral administration): 1.1 ± 0.1 µM | concentration at 8 h ([1]; male, C57Bl/6J, mouse, plasma, 10 mg/kg, […] mg/kg oral, mice, read-out: plasma level at 8 h after oral administration): 0.027 ± 0.005 µM | concentration at 5 min ([1]; male, C57Bl/6J, mouse, plasma, intravenous, 10 mg/kg, […] mg/kg i.v., mice, read-out: total plasma concentration at 5 min): 21.3 ± 2.4 µM | concentration at 1 h ([1]; male, C57Bl/6J, mouse, plasma, intravenous, 10 mg/kg, […] mg/kg i.v., mice, read-out: total plasma concentration at 1 h): 0.483 ± 0.231 µM | concentration at 4 h ([1]; male, C57Bl/6J, mouse, plasma, intravenous, 10 mg/kg, […] mg/kg i.v., mice, read-out: total plasma concentration at 4 h): 0.053 ± 0.044 µM | half-life ([1]; male, C57Bl/6J, mouse, plasma, 10 mg/kg, mice, read-out: half-life): ~0.333 h | Kp ([1]; male, C57Bl/6J, mouse, mice, averaged paired brain and plasma samples, read-out: brain/plasma ratio): 3.3 ± 2.9
